# Reference: patent US11395857B2, “Radiolabeled melanocortin 1 receptor-specific alpha-melanocyte-stimulating hormone analogues for imaging or therapy” (PROVINCIAL HEALTH SERVICES AUTHORITY, priority 2018, dated 2022)
# Like-named read-outs stand apart in the source and are kept apart here.
# Columns and labels:
# [1] = Biodistribution of 177Lu-labeled αMSH analogues in mice bearing B16F10 mouse melanoma; format: in vivo, C57BL/6J mice; settings: mouse, iv, total radioactivity, C57BL/6J mice, B16F10 melanoma
# Procedure: (§1) The B16-F10 mouse melanoma cells were cultured and inoculated in mice as described in Example 1.
# (§2) For biodistribution studies, approximately 1-2 MBq of ^177Lu-labeled αMSH analogues via tail vein under anesthesia. At 1, 4, 24, and 120 h p.i., the mice were euthanized by CO2 inhalation. Organs/tissues were harvested and the radioactivity was measured as described in Example 1.
# [2] = tested on: B16F10 mouse melanoma; assay: as above; format: in vivo, C57BL/6J mice; settings: C57BL/6J mice, B16F10 melanoma
# Procedure: as §1, §2
smiles,measurement,setting,value
"CCCC[C@H](NC(=O)CN1CCC(NC(=O)CN2CCN(CC(=O)O)CCN(CC(=O)O)CCN(CC(=O)O)CC2)CC1)C(=O)N[C@H]1CC(=O)NCCCC[C@@H](C(N)=O)N(C)C(=O)[C@H](Cc2c[nH]c3ccccc23)NC(=O)[C@H](CCCNC(=N)N)N(C)C(=O)[C@@H](Cc2ccccc2)NC(=O)[C@H](Cc2c[nH]cn2)NC1=O [^177Lu-labeled CCZ01106, metal not drawn]",tissue uptake at 1 h,"[1]; male, seminal glands, 1 h p.i., read-out: Biodistribution, Seminal glands",0.22 ± 0.35 %ID/g
same,tissue uptake at 4 h,"[1]; male, seminal glands, 4 h p.i., read-out: Biodistribution, Seminal glands",0.02 %ID/g
same,tissue uptake at 24 h,"[1]; male, seminal glands, 24 h p.i., read-out: Biodistribution, Seminal glands",0.01 %ID/g
same,tissue uptake at 120 h,"[1]; male, seminal glands, 120 h p.i., read-out: Biodistribution, Seminal glands",0.01 ± 0.01 %ID/g
same,tissue uptake at 1 h,"[1]; male, testes, 1 h p.i., read-out: Biodistribution, Testes",0.17 ± 0.06 %ID/g
same,tissue uptake at 4 h,"[1]; male, testes, 4 h p.i., read-out: Biodistribution, Testes",0.04 %ID/g
same,tissue uptake at 24 h,"[1]; male, testes, 24 h p.i., read-out: Biodistribution, Testes",0.03 %ID/g
same,tissue uptake at 120 h,"[1]; male, testes, 120 h p.i., read-out: Biodistribution, Testes",0.02 %ID/g
same,tissue uptake at 1 h,"[1]; adrenal glands, 1 h p.i., read-out: Biodistribution, Adrenal glands",0.54 ± 0.28 %ID/g
same,tissue uptake at 4 h,"[1]; adrenal glands, 4 h p.i., read-out: Biodistribution, Adrenal glands",0.13 ± 0.06 %ID/g
same,tissue uptake at 24 h,"[1]; adrenal glands, 24 h p.i., read-out: Biodistribution, Adrenal glands",0.23 ± 0.18 %ID/g
same,tissue uptake at 120 h,"[1]; adrenal glands, 120 h p.i., read-out: Biodistribution, Adrenal glands",0.02 ± 0.02 %ID/g
same,tissue uptake at 1 h,"[1]; blood, 1 h p.i., read-out: Biodistribution, Blood",0.49 ± 0.22 %ID/g
same,tissue uptake at 4 h,"[1]; blood, 4 h p.i., read-out: Biodistribution, Blood",0.02 %ID/g
same,tissue uptake at 24 h,"[1]; blood, 24 h p.i., read-out: Biodistribution, Blood",0.01 %ID/g
same,tissue uptake at 1 h,"[1]; bone, 1 h p.i., read-out: Biodistribution, Bone",0.18 ± 0.04 %ID/g
same,tissue uptake at 4 h,"[1]; bone, 4 h p.i., read-out: Biodistribution, Bone",0.07 ± 0.02 %ID/g
same,tissue uptake at 24 h,"[1]; bone, 24 h p.i., read-out: Biodistribution, Bone",0.06 ± 0.01 %ID/g
same,tissue uptake at 120 h,"[1]; bone, 120 h p.i., read-out: Biodistribution, Bone",0.04 ± 0.01 %ID/g
same,tissue uptake at 1 h,"[1]; brain, 1 h p.i., read-out: Biodistribution, Brain",0.02 %ID/g
same,tissue uptake at 4 h,"[1]; brain, 4 h p.i., read-out: Biodistribution, Brain",0.01 %ID/g
same,tissue uptake at 24 h,"[1]; brain, 24 h p.i., read-out: Biodistribution, Brain",0.01 %ID/g
same,tissue uptake at 1 h,"[1]; fat, 1 h p.i., read-out: Biodistribution, Fat",0.05 ± 0.02 %ID/g
same,tissue uptake at 4 h,"[1]; fat, 4 h p.i., read-out: Biodistribution, Fat",0.01 ± 0.01 %ID/g
same,tissue uptake at 24 h,"[1]; fat, 24 h p.i., read-out: Biodistribution, Fat",0.01 %ID/g
same,tissue uptake at 1 h,"[1]; heart, 1 h p.i., read-out: Biodistribution, Heart",0.19 ± 0.07 %ID/g
same,tissue uptake at 4 h,"[1]; heart, 4 h p.i., read-out: Biodistribution, Heart",0.03 %ID/g
same,tissue uptake at 24 h,"[1]; heart, 24 h p.i., read-out: Biodistribution, Heart",0.02 %ID/g
same,tissue uptake at 120 h,"[1]; heart, 120 h p.i., read-out: Biodistribution, Heart",0.01 %ID/g
same,tissue uptake at 1 h,"[1]; intestine, 1 h p.i., read-out: Biodistribution, Intestine",0.45 ± 0.2 %ID/g
same,tissue uptake at 4 h,"[1]; intestine, 4 h p.i., read-out: Biodistribution, Intestine",0.11 ± 0.06 %ID/g
same,tissue uptake at 24 h,"[1]; intestine, 24 h p.i., read-out: Biodistribution, Intestine",0.13 ± 0.04 %ID/g
same,tissue uptake at 120 h,"[1]; intestine, 120 h p.i., read-out: Biodistribution, Intestine",0.06 ± 0.07 %ID/g
same,tissue uptake at 1 h,"[1]; kidneys, 1 h p.i., read-out: Biodistribution, Kidneys",4.79 ± 0.92 %ID/g
same,tissue uptake at 4 h,"[1]; kidneys, 4 h p.i., read-out: Biodistribution, Kidneys",3.31 ± 0.66 %ID/g
same,tissue uptake at 24 h,"[1]; kidneys, 24 h p.i., read-out: Biodistribution, Kidneys",1.24 ± 0.46 %ID/g
same,tissue uptake at 120 h,"[1]; kidneys, 120 h p.i., read-out: Biodistribution, Kidneys",0.36 ± 0.05 %ID/g
same,tissue uptake at 1 h,"[1]; liver, 1 h p.i., read-out: Biodistribution, Liver",0.88 ± 0.16 %ID/g
same,tissue uptake at 4 h,"[1]; liver, 4 h p.i., read-out: Biodistribution, Liver",0.81 ± 0.08 %ID/g
same,tissue uptake at 24 h,"[1]; liver, 24 h p.i., read-out: Biodistribution, Liver",0.58 ± 0.14 %ID/g
same,tissue uptake at 120 h,"[1]; liver, 120 h p.i., read-out: Biodistribution, Liver",0.34 ± 0.03 %ID/g
same,tissue uptake at 1 h,"[1]; lungs, 1 h p.i., read-out: Biodistribution, Lungs",0.6 ± 0.19 %ID/g
same,tissue uptake at 4 h,"[1]; lungs, 4 h p.i., read-out: Biodistribution, Lungs",0.14 ± 0.04 %ID/g
same,tissue uptake at 24 h,"[1]; lungs, 24 h p.i., read-out: Biodistribution, Lungs",0.06 ± 0.02 %ID/g
same,tissue uptake at 120 h,"[1]; lungs, 120 h p.i., read-out: Biodistribution, Lungs",0.01 ± 0.01 %ID/g
same,tissue uptake at 1 h,"[1]; muscle, 1 h p.i., read-out: Biodistribution, Muscle",0.12 ± 0.05 %ID/g
same,tissue uptake at 4 h,"[1]; muscle, 4 h p.i., read-out: Biodistribution, Muscle",0.02 ± 0.01 %ID/g
same,tissue uptake at 24 h,"[1]; muscle, 24 h p.i., read-out: Biodistribution, Muscle",0.01 ± 0.01 %ID/g
same,tissue uptake at 1 h,"[1]; pancreas, 1 h p.i., read-out: Biodistribution, Pancreas",0.15 ± 0.05 %ID/g
same,tissue uptake at 4 h,"[1]; pancreas, 4 h p.i., read-out: Biodistribution, Pancreas",0.03 %ID/g
same,tissue uptake at 24 h,"[1]; pancreas, 24 h p.i., read-out: Biodistribution, Pancreas",0.03 ± 0.01 %ID/g
same,tissue uptake at 120 h,"[1]; pancreas, 120 h p.i., read-out: Biodistribution, Pancreas",0.01 %ID/g
same,tissue uptake at 1 h,"[1]; spleen, 1 h p.i., read-out: Biodistribution, Spleen",0.38 ± 0.11 %ID/g
same,tissue uptake at 4 h,"[1]; spleen, 4 h p.i., read-out: Biodistribution, Spleen",0.24 ± 0.03 %ID/g
same,tissue uptake at 24 h,"[1]; spleen, 24 h p.i., read-out: Biodistribution, Spleen",0.2 ± 0.04 %ID/g
same,tissue uptake at 120 h,"[1]; spleen, 120 h p.i., read-out: Biodistribution, Spleen",0.11 ± 0.01 %ID/g
same,tissue uptake at 1 h,"[1]; stomach, 1 h p.i., read-out: Biodistribution, Stomach",0.36 ± 0.22 %ID/g
same,tissue uptake at 4 h,"[1]; stomach, 4 h p.i., read-out: Biodistribution, Stomach",0.11 ± 0.02 %ID/g
same,tissue uptake at 24 h,"[1]; stomach, 24 h p.i., read-out: Biodistribution, Stomach",0.42 ± 0.18 %ID/g
same,tissue uptake at 120 h,"[1]; stomach, 120 h p.i., read-out: Biodistribution, Stomach",0.1 ± 0.08 %ID/g
same,tissue uptake at 1 h,"[1]; thyroid, 1 h p.i., read-out: Biodistribution, Thyroid",0.43 ± 0.11 %ID/g
same,tissue uptake at 4 h,"[1]; thyroid, 4 h p.i., read-out: Biodistribution, Thyroid",0.27 ± 0.06 %ID/g
same,tissue uptake at 24 h,"[1]; thyroid, 24 h p.i., read-out: Biodistribution, Thyroid",0.17 ± 0.01 %ID/g
same,tissue uptake at 120 h,"[1]; thyroid, 120 h p.i., read-out: Biodistribution, Thyroid",0.05 ± 0.02 %ID/g
same,tissue to tissue ratio at 1 h,"[1]; tumour/blood, 1 h p.i., read-out: Tumour/blood",19.2 ± 8.25
same,tissue to tissue ratio at 4 h,"[1]; tumour/blood, 4 h p.i., read-out: Tumour/blood",414 ± 59
same,tissue to tissue ratio at 24 h,"[1]; tumour/blood, 24 h p.i., read-out: Tumour/blood",652 ± 101
same,tissue to tissue ratio at 120 h,"[1]; tumour/blood, 120 h p.i., read-out: Tumour/blood",466 ± 382
same,tissue to tissue ratio at 1 h,"[1]; tumour/kidney, 1 h p.i., read-out: Tumour/kidney",1.75 ± 0.47
same,tissue to tissue ratio at 4 h,"[1]; tumour/kidney, 4 h p.i., read-out: Tumour/kidney",2.46 ± 0.87
same,tissue to tissue ratio at 24 h,"[1]; tumour/kidney, 24 h p.i., read-out: Tumour/kidney",3.08 ± 1.05
same,tissue to tissue ratio at 120 h,"[1]; tumour/kidney, 120 h p.i., read-out: Tumour/kidney",1.44 ± 1.14
same,tissue to tissue ratio at 1 h,"[1]; tumour/muscle, 1 h p.i., read-out: Tumour/muscle",75 ± 29.8
same,tissue to tissue ratio at 4 h,"[1]; tumour/muscle, 4 h p.i., read-out: Tumour/muscle",452 ± 158
same,tissue to tissue ratio at 24 h,"[1]; tumour/muscle, 24 h p.i., read-out: Tumour/muscle",320 ± 91.8
same,tissue to tissue ratio at 120 h,"[1]; tumour/muscle, 120 h p.i., read-out: Tumour/muscle",117 ± 92.2
same,excreta dose per gram or mL at 1 h,"[1]; urine, 1 h p.i.",222 ± 81.1 %ID/g
same,excreta dose per gram or mL at 4 h,"[1]; urine, 4 h p.i.",19.3 ± 4.21 %ID/g
same,excreta dose per gram or mL at 24 h,"[1]; urine, 24 h p.i.",0.94 ± 0.48 %ID/g
same,excreta dose per gram or mL at 120 h,"[1]; urine, 120 h p.i.",0.15 ± 0.07 %ID/g
same,"Biodistribution, B16F10 tumour",[2]; 1 h p.i.,8.25 ± 1.94 % ID/g
same,"Biodistribution, B16F10 tumour",[2]; 4 h p.i.,7.81 ± 2.16 % ID/g
same,"Biodistribution, B16F10 tumour",[2]; 24 h p.i.,3.45 ± 0.30 % ID/g
same,"Biodistribution, B16F10 tumour",[2]; 120 h p.i.,0.49 ± 0.36 % ID/g
same,"Biodistribution, Blood",[2]; 120 h p.i.,0.00 ± 0.00 % ID/g
same,"Biodistribution, Brain",[2]; 120 h p.i.,0.00 ± 0.00 % ID/g
same,"Biodistribution, Fat",[2]; 120 h p.i.,0.00 ± 0.00 % ID/g
same,"Biodistribution, Muscle",[2]; 120 h p.i.,0.00 ± 0.00 % ID/g
